Assay results: ChEMBL document CHEMBL1150174, “Lyngbyaloside B, a new glycoside macrolide from a Palauan marine cyanobacterium, Lyngbya sp” (J Nat Prod, 2002)

Columns and labels:
KB = test: Cytotoxicity against human KB cells; assay type: functional, cell-based
LoVo = test: Cytotoxicity against human LoVo cells; assay type: functional, cell-based

With `CO[C@@H]1[C@@H](OC)[C@@H](O)[C@H](O[C@H]2C[C@@]3(O)CC(=O)O[C@](C)(CC/C=C/C=C/Br)C[C@@H](O)[C@H](C)CC[C@H](O3)[C@@H]2C)O[C@H]1C` [LYNGBYALOSIDE B] the IC50 (KB) was 4.3 µM and the IC50 (LoVo) was 15 µM.
